# Laboratory results from patent US20120321584A1, “PROCESSES FOR PREPARING AMINE SALTS OF KMUP-3 AND USE THEREOF” (KAOHSIUNG MEDICAL UNIVERSITY, priority 2011, published 2012).
# Structures can show the parent of a compound that is named as a salt.
# How the values were obtained:
# [1] = system: electrically-stimulated left atria; test: Electrically-stimulated beating left atrium, organ bath; assay type: cell-based, guinea-pig; conditions: for Effect of pretreatment on KMUP-3-induced contractility: sGC inhibitor ODQ, eNOS inhibitor L-NAME
# Experimental: (§1) Organ bath experiments and tissue procurement. Guinea-pigs were killed by a blow on the head. Their hearts were quickly excised and trimmed of excess tissues. The atrium was carefully removed and placed at room temperature (20˜25° C.) in a Krebs solution of the following composition (mM): NaCl 113, KCl 4.8, CaCl2 2.2, KH2PO4 1.2, MgCl2 1.2, NaHCO3 25, dextrose 11.0; bubbled with a 95% O2+5% CO2 mixture, followed by separation of right and left atrium for subsequent experiments.
# Quiescent left atria free of connective tissues were dissected and mounted in an organ bath under a resting tension of 0.5 g. Organs were bathed at 32.5° C. in aerated Krebs solution and electrically stimulated with 1 Hz at […] via two platinum electrodes placed at either side. The positive inotropic effect was measured by determining the cumulative concentration-response curves in the presence of KMUP-3 or KMUP-3 amine salt (0.1, 1.0, 10, 100 μM). To examine the possible involvement of NO and cAMP/cGMP in the action of KMUP-3 or KMUP-3 amine salt on electrically-stimulated beating atria, pre-incubated with a ROCK inhibitor Y27632 (1.0 μM), a β-adrenoceptor blocker propranolol (1.0 μM), eNOS inhibitors L-NAME (100 μM), 7-nitroindazole (100 μM) and 5-HT inhibitor ketanserin (1.0 μM) was performed for 15 min prior to the addition of KMUP-3 or KMUP-3 amine salt to measure the development of beating force and heart rate for 10 min.
# [2] = system: isolated spontaneously beating right atrium; test: Spontaneously beating right atrium, organ bath; assay type: cell-based, guinea-pig; conditions: atropine 1 μM; 7-nitroindazole 100 μM
# Experimental: as §1
# Spontaneously beating right atrium was dissected from the heart and mounted in a 10 ml organ bath with one end fixed and the other end connected to a force displacement transducer (Grass, Model FT03). The frequency of contraction was measured on a separate channel by a tachometer (Coulbourn, Model S77-26) connected to a high-speed videograph (Coulbourn, AT L19-69). These experiments were carried out at 32.5° C. in Krebs solution. The atria strip was pre-stretched to a baseline tension of 0.5 g and equilibrated for 90 min in aerated (95% O2+5% CO2) Krebs solution before the experimental protocols were initiated. The atria were then allowed a 30-60 min washout period to re-stabilize. KMUP-3 or KMUP-3 amine salt (0.1, 1.0, 10, 100 μM) were then cumulatively added to the organ bath. […]
# ROCKII = test: Protein expression of ROCKII by optical density after KMUPs salts (Table 2); assay type: cell-based; conditions: KMUPs salts 10 μM, 120 min; vehicle (without treatment) = 100 %
# Experimental: (§2) Protein extraction and Western blotting analysis. Briefly, after incubation with test agents in an organ bath, isolated beating atrium was frozen and pulverized to a fine powder at the temperature of liquid nitrogen. Atrium powders were then homogenized in protein extraction reagent (Pierce Biotechnology, Inc., Rockford, Ill.) by sonication. The samples were sonicated 10 sec three times and centrifuged at 13,000 rpm at 4° C. for 30 min. The protein concentrations of supernatants were determined by using bovine serum albumin as the standard. The cell extracts were then boiled in a ratio of 4:1 with sample buffer (Tris 100 mM, pH 6.8; glycerol 20%, Sodium dodecyl sulfate (SDS) 4% and bromophenol blue 0.2%). Electrophoresis was performed using 10% SDS-PAGE and transferred to nitrocellulose membranes (Millipore Corp., Billerica, Mass.). The membrane was blocked with Tris-buffered saline (TBS; 20 mM Tris and 137 mM NaCl, pH 7.6) containing 0.1% Tween 20 (TTBS) and 5% nonfat milk at room temperature for 1 h, washed with TTBS, and then incubated overnight at 4° C. in the appropriate primary antibody for PKARI, RhoA, ROCKII, p-CIP-17, CPI-17 and PKG1α1β. […] The intensity of the bands was measured by densitometry. eNOS or phosphorylated eNOS were extracted from cell culture of neonatal myocytes, PA ring and aortic ring (2-3 mm) of rats and measured by Western blotting analysis.
# eNOS [3] = test: Protein expression of eNOS by optical density after KMUPs salts (Table 2); assay type: cell-based; conditions: KMUPs salts 10 μM, 120 min; vehicle (without treatment) = 100 %
# Experimental: as §2
# PDE-4 = test: Protein expression of PDE-4 by optical density after KMUPs salts (Table 2); assay type: cell-based; conditions: KMUPs salts 10 μM, 120 min; vehicle (without treatment) = 100 %
# Experimental: as §2
# PDE-3 = test: Protein expression of PDE-3 by optical density after KMUPs salts (Table 2); assay type: cell-based; conditions: KMUPs salts 10 μM, 120 min; vehicle (without treatment) = 100 %
# Experimental: as §2
# PDE-5 = test: Protein expression of PDE-5 by optical density after KMUPs salts (Table 2); assay type: cell-based; conditions: KMUPs salts 10 μM, 120 min; vehicle (without treatment) = 100 %
# Experimental: as §2
# L-type Ca2+ channels = test: Ca2+ entry currents in H9c2 cells, whole cell patch-clamp; assay type: cell-based, rat; conditions: KMUP-3 10 μM with KT5823 3 μM or Y27642 50 μM
# Description: To measure the ICa through L-type Ca^2+ channels, whole cell patch-clamp electrophysiology was used in rat heart-derived H9c2 cells as previously described. In brief, H9c2 cells were placed in a recording dish and perfused with a bath solution containing (in mM): 135 tetraethylammonium (TEA)-Cl, 1.8 CaCl2, 2 MgCl2, 10 glucose, and 10 HEPES (pH 7.4, Tris). […] Negative pressure was briefly applied to rupture the membrane and a gigaohm seal was obtained.
# H9c2 cells were clamped at −80 mV with step depolarizations (300 ms) from −80 to 0 mV to evoke whole-cell ICa. Voltage clamped cells were equilibrated for 15 min prior to experimentation. Membrane currents were recorded on an Axopatch 700A amplifier (Axon Instruments, Union City, Calif.), filtered at 1 kHz using a low-pass Bessel filter, digitized at 5 kHz and stored on a computer for subsequent analysis with Clampfit 9.0. Following equilibration, ICa was monitored in the presence and absence of KMUP-3 or KMUP-3 amine salt (1, 10, 100 μM). To ascertain whether PKG or ROCK signaling was involved in the KMUP-3-induced decreases in ICa, H9c2 cells were incubated for 15 min with the combination of KMUP-3 or KMUP-3 amine salt (10 μM) and PKG antagonist KT5823 (3 μM) or ROCK inhibitor Y-27632 (50 μM). All electrical recordings were performed at room temperature.
# eNOS [4] = test: eNOS expression in neonatal myocytes, Western blotting; assay type: cell-based, rat; conditions: L-NAME 100 μM pretreatment
# Experimental: (§3) eNOS/p-NOS and cAMP/cGMP in neonatal myocytes. To determine the role of the NO/cGMP-pathway in heart, neonatal rat myocyte protein was extracted followed by Western blotting to measure the expression of eNOS, phosphorylated eNOS (p-eNOS), cAMP, and cGMP (FIG. 14 A-14 B and FIG. 15 A-15 B). KMUP-3 increased eNOS and p-eNOS in neonatal rat cardiomyocytes and the effect was reduced by L-NAME (100 μM)-pretreatment (FIG. 14A and FIG. 14B). KMUP-3 increased both cAMP and cGMP.
# (§4) Protein extraction and Western blotting analysis. Briefly, after incubation with test agents in an organ bath, isolated beating atrium was frozen and pulverized to a fine powder at the temperature of liquid nitrogen. Atrium powders were then homogenized in protein extraction reagent (Pierce Biotechnology, Inc., Rockford, Ill.) by sonication. The samples were sonicated 10 sec three times and centrifuged at 13,000 rpm at 4° C. for 30 min. The protein concentrations of supernatants were determined by using bovine serum albumin as the standard. […] The intensity of the bands was measured by densitometry. eNOS or phosphorylated eNOS were extracted from cell culture of neonatal myocytes, PA ring and aortic ring (2-3 mm) of rats and measured by Western blotting analysis.
# [5] = system: phosphorylated eNOS (p-eNOS); test: Phosphorylated eNOS expression in neonatal myocytes, Western blotting; assay type: cell-based, rat; conditions: L-NAME 100 μM pretreatment
# Experimental: as §3, §4
# PKG = PKG expression in beating left atrium, Western blotting; assay type: cell-based, guinea-pig; conditions: L-NAME pretreatment
# Experimental: as §2, with “Mass.).” for “Mass.). The membrane was blocked with Tris-buffered saline (TBS; 20 mM Tris and 137 mM NaCl, pH 7.6) containing 0.1% Tween 20 (TTBS) and 5% nonfat milk at room temperature for 1 h, washed with TTBS, and then incubated overnight at 4° C. in the appropriate primary antibody for PKARI, RhoA, ROCKII, p-CIP-17, CPI-17 and PKG1α1β.”
# PK, ROCKII and CIP-17 expression and pretreatment of beating left atrium. To examine whether KMUP-3 or KMUP-3 amine salt affects the protein expression in beating atrium, PKA, ROCKII, PKG and phosphorylated CIP-17 was determined by Western blotting, respectively. […]
smiles,measurement,setting,value
O=[N+]([O-])c1cccc2cn[nH]c12 [7-nitroindazole],Effect of combination on left atria contractility increased by KMUP-3,[1]; KMUP-3 10 μM with 7-nitroindazole 100 μM,reduced
same,Effect of pretreatment on the beating frequency decreased by KMUP-3,[2],up-regulated
Cn1c(=O)c2c(ncn2CCN2CCN(c3ccc([N+](=O)[O-])cc3)CC2)n(C)c1=O [KMUP-3-HCl],"ROCKII protein expression, optical density (%)",ROCKII,42 ± 2.2%
same,"eNOS protein expression, optical density (%)",eNOS [3],138 ± 5.2%
same,"PDE-4 protein expression, optical density (%)",PDE-4,48 ± 2.1%
same,"PDE-3 protein expression, optical density (%)",PDE-3,55 ± 2.5%
same,"PDE-5 protein expression, optical density (%)",PDE-5,48 ± 1.9%
COC(=O)[C@@]1(OC)C[C@H]2O[C@]1(C)n1c3ccccc3c3c4c(c5c6ccccc6n2c5c31)C(=O)N(C)C4 [KT5823],Effect of combination on currents reduced by KMUP-3,L-type Ca2+ channels,restored
COC(=O)[C@@H](N)CCCNC(=N)N[N+](=O)[O-] [L-NAME],Effect of pretreatment on KMUP-3-induced positive inotropic activity,"[1]; propranolol and Y27632 1 μM, C3 exoenzyme 50 μg/mL, ketanserin 1.0 μM, L-NAME 100 μM",reduced
same,Effect of pretreatment on KMUP-3-induced contractility,[1],inhibited
same,Effect of pretreatment on KMUP-3-increased eNOS,eNOS [4],reduced
same,Effect of pretreatment on KMUP-3-increased p-eNOS,[5],reduced
same,Effect of pretreatment on expression of PKG,PKG,reduced
O=c1onc2cnc3ccccc3n12 [ODQ],Effect of pretreatment on KMUP-3-induced contractility,[1],inhibited
